{"source": "patent US10130670B2", "about": "“Composition for treating or preventing inflammatory skin disease, comprising, as active ingredient, immature citrus fruit extract, or synephrine or salt thereof” (BIO SPERCTRUM, INC., priority 2013, dated 2018)", "key": {"eotaxin-1 [1]": {"system": "eotaxin-1", "test": "eotaxin-1 reporter gene (luciferase) promoter activity in IL-4 treated fibroblast", "assay_type": "cell-based", "settings": "10, 100 and 200 μM synephrine; 50 ng/ml IL-4; 24 hours; NIH/3T3", "procedure": "Human normal fibroblast (human normal fibroblast, NIH/3T3, department of dermatology in Aju University) was transformed by inserting Eotaxin-1 reporter gene into it with superfect (Quigen Co.), and then cultured in 5% concentration of CO2 cultivator under the condition of 37° C. for 24 hours. And then, the transformed fibroblast was inoculated into 24-well microplate with DMEM media so as to be about 2×10^5 cells per well, and treated with 1, 10, 100 ppm of unripe Citrus unshiu fruit extract, or 10, 100 and 200 μM of synephrine, respectively and then was treated simultaneously with 50 ng/ml of interleukin-4 (R&D, Minneapolis Minn., IL-4) known to induce eotaxin-1, cultivated for 24 hours to collect cells. Then, the collected cells were crushed and reacted with a substrate of luciferase to determine luminescence, and a promoter activity of eotaxin-1 was determined. The results are represented in FIG. 1."}, "eotaxin-1 [2]": {"system": "eotaxin-1", "test": "extracellular secretion of eotaxin-1 by ELISA in IL-4 treated fibroblast", "assay_type": "cell-based, human", "settings": "10, 100 and 200 μM synephrine; 50 ng/ml IL-4; 24 hours; NIH/3T3", "procedure": "Human normal fibroblast (human normal fibroblast, NIH/3T3, department of dermatology in Aju University) was inoculated into 24-well microplate with DMEM media so as to be about 2×10^5 cells per well, and cultured in 5% concentration of CO2 cultivator under the condition of 37° C. for 24 hours. And then, it was treated with 1, 10, 100 ppm of unripe Citrus unshiu fruit extract, or 10, 100 and 200 μM of synephrine, respectively and then was treated simultaneously with 50 ng/ml of interleukin-4 (R&D, Minneapolis Minn., IL-4), cultivated for 24 hours to collect cell culture media. And then, the degree of secretion of eotaxin-1 was determined by using ELISA kit. The results are represented in FIG. 2."}, "eotaxin-1 mRNA": {"system": "eotaxin-1 mRNA", "test": "eotaxin-1 mRNA expression by quantitative Real-time PCR in IL-4 treated fibroblast", "assay_type": "cell-based, human", "settings": "10, 100 and 200 μM synephrine; 50 ng/ml IL-4; 24 hours; NIH/3T3", "procedure": "Human normal fibroblast (human normal fibroblast, NIH/3T3, department of dermatology in Aju University) was inoculated into 24-well microplate with DMEM media to be about 2×10^5 cell per well, and cultured in 5% concentration of CO2 cultivator under 37° C. for 24 hours. And then, it was treated with 1, 10, 100 ppm of unripe Citrus unshiu fruit extract, or 10, 100 and 200 μM of synephrine, respectively and then was treated simultaneously with 50 ng/ml of interleukin-4 (R&D, Minneapolis Minn., IL-4), cultivated for 24 hours to collect cell culture media. After extracting tRNA from the collected cells, a complementary DNA (cDNA) was synthesized based on the extracted tRNA and then, a quantitative Real-time PCR was performed by using the synthesized complementary DNA as a template to determine the degree of expression for mRNA of eotaxin-1. The results are represented in FIG. 3."}, "STAT6 [3]": {"system": "STAT6", "test": "STAT6 phosphorylation by Western blot in IL-4 treated fibroblast", "assay_type": "cell-based, human", "settings": "10, 100, 200 ppm synephrine for 60 minutes, then 50 ng/ml IL-4 for 20 minutes; NIH/3T3", "procedure": "Human normal fibroblast (human normal fibroblast, NIH/3T3, department of dermatology in Aju University) was inoculated into 24-well microplate with DMEM media so as to be about 2×10^5 cells per well, and cultured in 5% concentration of CO2 cultivator under the condition of 37° C. for 24 hours. And then, it was treated with 10, 100, 200 ppm of synephrine for 60 minutes, respectively and then 50 ng/ml of IL-4 was treated to cultivate for 20 minutes. Then, the cells were collected to dissolve and then determine the degree of phosphorylation inhibition of STAT6 through Western blot. The results are represented in FIG. 3."}, "STAT6 [4]": {"system": "STAT6", "test": "translocation of STAT6 into the nucleus, confocal microscopy", "assay_type": "cell-based", "settings": "200 μM synephrine for 60 minutes, then 50 ng/ml IL-4 for 24 hours; NIH/3T3", "procedure": "Human normal fibroblast (human normal fibroblast, NIH/3T3, department of dermatology in Aju University) was inoculated into 24-well microplate with DMEM media so as to be about 2×10^5 cells per well, and cultured in 5% concentration of CO2 cultivator under the condition of 37° C. for 24 hours. And then, it was treated with 200 μM of synephrine for 60 minutes, respectively and then was treated with 50 ng/ml of IL-4 to cultivate for 24 hours. And then, the cells was immobilized with paraformaldehyde (PFA) and treated with the primary antibody specifically reacting with STAT6. […] The results are represented in FIG. 5."}, "eosinophil": {"system": "eosinophil", "test": "eosinophil transmigration in co-cultivation with IL-4 treated fibroblast", "assay_type": "cell-based", "settings": "10, 100 and 200 μM synephrine; 50 ng/ml IL-4; 24 hours", "procedure": "Human normal fibroblast (human normal fibroblast, NIH/3T3, department of dermatology in Aju University) was inoculated into 24-well co-cultivation plate with DMEM media so as to be about 2×10^5 cells per well, and cultured in 5% concentration of CO2 cultivator under the condition of 37° C. for 24 hours. And then, it was treated with 10, 100 and 200 μM of synephrine for 60 minutes, respectively and then 50 ng/ml of IL-4 was treated to induce the expression of eotaxin-1. Simultaneously, eosinophil was inoculated and cultivated for 24 hours. After the cultivation, the transmigration degree of eosinophil moved through the membrane to bottom of the plate was determined. The determination was measured via a fluorescence staining by using CytoSelect™ 24-Well Cell Migration Assay kit (Cell biolabs, INC., USA). The results are represented in FIG. 6."}, "human skin": {"system": "human skin", "test": "accumulated patch test for safety to the human skin", "assay_type": "in vivo", "settings": "for Mean reaction degree: 30 adults, 9 patches, less than 3 = safe", "procedure": "In order to identify as to whether the unripe Citrus unshiu fruit extract or synephrine isolated from the unripe Citrus unshiu fruit is safe or not, the skin external preparation based on squalene wherein 1, 10 and 100 ppm of the unripe Citrus unshiu fruit extract prepared in Example 1 were added, was prepared, and the skin external preparation wherein 10, 150 and 300 ppm of synephrine of Example 2 were added, were prepared, respectively.\nThen, the skin external preparations were applied as a patch to areas of humerus of 30 adults for accumulated 24 hours on alternate day in total 9 times to test as to whether synephrine stimulates the skin. The control used the skin external preparation based on squalene wherein the unripe Citrus unshiu fruit extract or synephrine was not comprised.\nThe patch used Finn chamber (Epitest Ltd, Filand) and the patch was practiced after dropping with 15 μl of the skin external preparations prepared from the above, respectively. The degree of the reaction represented on the skin in every time was scored by using the below experimental formula 1. Mean reaction degree=[{(reaction index×reaction degree)/(total number of the subject×the highest score (four point))}×100]/times of the test [Experimental Formula 1]\nAt this time, in the reaction degree, ± represents 1 score (point), + represents 2 score and ++ represents 4 score,\nWhen the mean reaction degree is less than 3, it is considered as being the safe composition."}, "[5]": {"system": "children of atopy patients", "test": "effect for improving atopy of cream, EASI score", "assay_type": "in vivo, human", "settings": "for EASI score (5 = no improvement, 0 = many improvements): cream 0.03 or 0.01% by weight, twice per day, 30 children", "procedure": "Creams comprising the unripe Citrus unshiu fruit extract or synephrine isolated from it, having the ingredients and contents shown in below Table 2 were prepared. Specifically, aqueous phase, the purified water, triethanolamine and propylene glycol were heated to 70° C. to dissolve them, and then to it added the liquid in which oil phase, fatty acid, oily component, emulsifier and preservative were heated to 70° C. to dissolve them and stirred with homomixer (Tokushu Kika Ltd., Japan) to emulsify them. After the emulsifying them was completed, the said solution was cooled to 45° C., 0.03% by weight or 0.01% by weight of the unripe Citrus unshiu fruit extract or synephrine based on the total weight of the composition was added, dispersed and then cooled to 30° C.\nCream comprising 0.03 or 0.01% by weight of the unripe Citrus unshiu fruit extract or synephrine isolated from it, prepared according to the method of 10-1 as above was used for 30 children of atopy patients twice per day for 4 weeks. The control used the cream comprising the purified water instead of the unripe Citrus unshiu fruit extract or synephrine.\nThe effect improving atopy was determined by using Eczema Area Severity Index (EASI) score, the determination criterion was set as 5 for the case that there is no improvement of atopy, and 0 for the case that there are many improvements of atopy and the relative values were compared."}}, "data": [{"smiles": "CNCC(O)c1ccc(O)cc1", "note": "(stereo not drawn) [synephrine, 4-[1-hydroxy-2-(methylamino)ethyl]phenol]", "values": [{"measurement": "promoter activity of eotaxin-1 derived by IL-4", "setting": "eotaxin-1 [1]", "result": "reduced"}, {"measurement": "extracellular secretion of eotaxin-1 derived by IL-4", "setting": "eotaxin-1 [2]", "result": "reduced"}, {"measurement": "expression of mRNA of eotaxin-1 derived by IL-4", "setting": "eotaxin-1 mRNA", "result": "reduced"}, {"measurement": "phosphorylation of STAT6 derived by IL-4", "setting": "STAT6 [3]", "result": "effectively inhibits"}, {"measurement": "translocation of STAT6 derived by IL-4 into the nucleus", "setting": "STAT6 [4]", "result": "inhibits"}, {"measurement": "movement of eosinophil derived by eotaxin-1 expressed from the treatment of IL-4", "setting": "eosinophil", "result": "inhibits"}, {"measurement": "skin reaction in the patch test", "setting": "human skin; 10, 150 and 300 ppm, all test groups, all 9 patches", "result": "did not represent the skin reaction"}, {"measurement": "Mean reaction degree", "setting": "human skin; 10 ppm in squalene-based skin external preparation", "result": 0.00}, {"measurement": "Mean reaction degree", "setting": "human skin; 150 ppm in squalene-based skin external preparation", "result": 0.00}, {"measurement": "Mean reaction degree", "setting": "human skin; 300 ppm in squalene-based skin external preparation", "result": 0.00}, {"measurement": "safety to the human skin, judged from mean reaction degree", "setting": "human skin; all tested concentrations, mean reaction degree less than 3 = safe", "result": "safe material"}, {"measurement": "EASI score (5 = no improvement, 0 = many improvements)", "setting": "[5]; 1st week", "result": 2.82}, {"measurement": "EASI score (5 = no improvement, 0 = many improvements)", "setting": "[5]; 2nd week", "result": 1.51}, {"measurement": "EASI score (5 = no improvement, 0 = many improvements)", "setting": "[5]; 4th week", "result": 0.63}, {"measurement": "EASI score compared to the control", "setting": "[5]; cream used for 4 weeks", "result": "reduced compared to the control"}]}]}
